The values below come from ChEMBL document CHEMBL1157914, “5,5'-substituted indirubin-3'-oxime derivatives as potent cyclin-dependent kinase inhibitors with anticancer activity” (J Med Chem, 2010).

Structures are written as SMILES. Calls of active or inactive are those of the source. The rule behind the calls is not given here.

Data set [1] has as its target Cyclin-dependent kinase 2/cyclin E1 (Homo sapiens) (UniProt P24864+P24941). In words: Inhibition of CDK2/cyclin E as percent residual activity. It is filed as protein-complex assay. On the set-up: Residual activity / inhibition: concentration or dose not given beside the values.
A further data set deals with A549. The data set can be described thus: Antiproliferative activity against human A549 cells after 3 days by SRB assay. The following applies: A549, 72 h. The data set is classed as functional, cell-based.
A further data set relates to KB. The data set can be described thus: Antiproliferative activity against human KB cells after 3 days by SRB assay. The following applies: 72 h. The data set is classed as functional, cell-based. (In SRB staining, fixed cells bind dye roughly in proportion to their protein.)
The test system of another data set is K562. The data set can be described thus: Antiproliferative activity against human K562 cells after 3 days by SRB assay. It is filed as functional, cell-based. The following applies: K562, 72 h.
Data set [2] can be described thus: Antiproliferative activity against human […] cells after 3 days by SRB assay. The data set is classed as functional, cell-based. The following applies: 72 h.
The test system of the next data set is SNU-638. In words: Antiproliferative activity against human SNU638 cells after 3 days by SRB assay. It is filed as functional, cell-based. To be noted: SNU-638, 72 h.
Another data set relates to MCF7. In words: Antiproliferative activity against human MCF7 cells after 3 days by SRB assay. It is filed as functional, cell-based. The following applies: MCF7, 72 h.
Another data set concerns HT-1080. In words: Antiproliferative activity against human HT1080 cells after 3 days by SRB assay. The data set is classed as functional, cell-based. To be noted: HT-1080, 72 h.
A short description of data set [3]: Selectivity ratio for CDK2/cyclinE over CDK1/cyclin B.
Data set [4] addresses Cyclin-dependent kinase 2/cyclin E1 (Homo sapiens, UniProt P24941). The data set can be described thus: Inhibition of CDK2/cyclin E. The data set is classed as protein-complex assay.
Data set [5] has as its target Cyclin-dependent kinase 1/cyclin B1 (Homo sapiens) (UniProt P06493+P14635). In words: Inhibition of CDK1/cyclin B at 1 uM after 40 mins by lequid scintillation counting. It is filed as protein-complex assay.
Data set [6] can be described thus: Solubility of compound in 3 equimolar NaOH and 0.1 N NaHCO3 buffer. It is filed as physicochemical.
Data set [7] in a line: Solubility of compound in 3 equimolar NaOH and distilled water. The data set is classed as physicochemical. The following applies: buffer.
The nature of data set [8]: Solubility of compound in 2 equimolar NaOH and distilled water. It is filed as physicochemical. To be noted: buffer.
Data set [9] is described as follows: Aqueous solubility of compound in water. The data set is classed as physicochemical. To be noted: buffer.

Chain of Cyclin-dependent kinase 1/cyclin B1 (Homo sapiens) (P06493 whole entry, looked up): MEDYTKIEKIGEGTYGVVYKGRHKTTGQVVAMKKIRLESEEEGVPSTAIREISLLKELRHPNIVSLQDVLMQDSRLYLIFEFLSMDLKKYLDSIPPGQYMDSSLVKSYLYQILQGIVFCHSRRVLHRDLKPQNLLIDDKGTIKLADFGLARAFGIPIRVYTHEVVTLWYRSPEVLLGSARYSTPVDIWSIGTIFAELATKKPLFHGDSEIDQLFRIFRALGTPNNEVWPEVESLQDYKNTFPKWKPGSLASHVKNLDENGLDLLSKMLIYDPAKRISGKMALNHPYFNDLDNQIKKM
Chain of Cyclin-dependent kinase 1/cyclin B1 (Homo sapiens) (P14635 whole entry, looked up): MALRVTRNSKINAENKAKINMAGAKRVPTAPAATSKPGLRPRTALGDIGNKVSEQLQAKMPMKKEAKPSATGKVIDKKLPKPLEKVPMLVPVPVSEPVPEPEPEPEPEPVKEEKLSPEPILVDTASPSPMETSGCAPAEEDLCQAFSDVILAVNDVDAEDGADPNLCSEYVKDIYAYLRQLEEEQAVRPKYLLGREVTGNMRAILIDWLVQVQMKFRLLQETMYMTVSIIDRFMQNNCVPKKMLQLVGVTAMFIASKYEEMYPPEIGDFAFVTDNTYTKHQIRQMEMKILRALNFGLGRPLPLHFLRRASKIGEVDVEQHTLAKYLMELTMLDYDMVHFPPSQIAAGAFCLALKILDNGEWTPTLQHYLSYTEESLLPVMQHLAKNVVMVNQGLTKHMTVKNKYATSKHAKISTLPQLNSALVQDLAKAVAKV

In data set [1], `Cc1ccc2c(c1)C(=N/O)/C(=C1/C(=O)Nc3ccc(OC(F)(F)F)cc31)N2` returned a Residual activity of 90%. In addition, the IC50 was over 20 µM in the data set on A549; 8.13 µM with KB; over 20 µM with K562; over 20000 nM in [2]; over 20000 nM in the data set with SNU-638; 7.31 µM in the data set on MCF7. This molecule yielded an IC50 in the data set with HT-1080 of over 20 µM.

In turn, `O=C1Nc2ccc(Cl)cc2/C1=C1/Nc2ccc(F)cc2/C1=N/O` had a Residual activity in data set [1] of 90%. The IC50 in the data set on A549 is over 20 µM; in the data set with KB, 9.11 µM; with K562 it was 7.14 µM; in data set [2], 3310 nM; in the data set with SNU-638, 6320 nM; in the data set with MCF7, 7.13 µM. For the same molecule, the IC50 in the data set on HT-1080 was 5.33 µM; in data set [4], 8.01 nM. In addition, in [3], the Selectivity ratio is 6.

The molecule `O=C1Nc2ccc(OC(F)(F)F)cc2/C1=C1/Nc2ccc(F)cc2/C1=N/O` showed a Residual activity in data set [1] of 90%. Besides, the IC50 in the data set on A549 amounted to 19.9 µM; in the data set with KB, 3.81 µM; in the data set with K562 it was 1.53 µM; in data set [2], 1510 nM; with SNU-638 it was 1890 nM; with MCF7 it was 4.12 µM. Also, the IC50 in the data set on HT-1080 is 3.95 µM; in data set [4], 60.3 nM. For the same molecule, the Selectivity ratio in data set [3] came to 6.

For the molecule `COc1ccc2c(c1)C(=N/O)/C(=C1/C(=O)Nc3ccc([N+](=O)[O-])cc31)N2`, the inhibition result in data set [1] and in [5] was “inactive” each time. Also, the IC50 with A549 was over 20 µM; in the data set with KB, over 20 µM; in the data set with K562, over 20 µM; in [2] it was over 20000 nM; in the data set on SNU-638 it was over 20000 nM; in the data set with MCF7, over 20 µM. Besides, the IC50 in the data set with HT-1080 was over 20 µM; in [4], 2950 nM.

`O=C1Nc2ccc([N+](=O)[O-])cc2/C1=C1/Nc2ccc(F)cc2/C1=N/O` registered a Residual activity in data set [1] of 90%. Moreover, the IC50 in the data set on A549 came to 0.57 µM; in the data set on KB, 0.92 µM; with K562 it was 0.46 µM; in data set [2], 280 nM; in the data set on SNU-638, 940 nM; with MCF7, 0.91 µM. Besides, the IC50 with HT-1080 stood at 0.64 µM; in data set [4] it was 1.71 nM. For the same molecule, the Selectivity ratio in data set [3] came to 6.

As for `O=Nc1c(-c2c(O)[nH]c3ccc([N+](=O)[O-])cc23)[nH]c2ccccc12`, the solubility in [6] was under 0.1 mg/mL; in [7], under 0.1 mg/mL; in data set [8], under 0.1 mg/mL; in data set [9], “Insoluble”. Also, in data set [4], the IC50 worked out at 7.35 nM.

Turning to `O=C1Nc2ccc(F)cc2/C1=C1/Nc2ccc(O)cc2/C1=N/O`, the Residual activity in data set [1] turned out to be 90%. For the same molecule, the IC50 was 4.09 µM with A549; 4.62 µM in the data set on KB; 1.42 µM in the data set on K562; 1660 nM in data set [2]; 2110 nM in the data set on SNU-638; 2.61 µM in the data set on MCF7. The IC50 turned out to be 0.68 µM in the data set with HT-1080 and 2.25 nM in data set [4].

With `O=C1Nc2ccc(F)cc2/C1=C1/Nc2ccc(F)cc2/C1=N/O`, in data set [1], the Residual activity is 90%. In addition, the IC50 in the data set with A549 came to 10.3 µM; with KB it was 13.2 µM; with K562, 15.9 µM; in data set [2], 13500 nM; in the data set with SNU-638, 2230 nM; with MCF7 it was 6.57 µM. Further, the IC50 came to 8.62 µM in the data set on HT-1080 and 1.83 nM in data set [4]. Besides, in data set [3], the Selectivity ratio turned out to be 6.

Molecule `O=C1Nc2ccc(OC(F)(F)F)cc2/C1=C1/Nc2ccc(O)cc2/C1=N/O` returned a Residual activity in data set [1] of 90%. Besides, the IC50 came out at 16.9 µM in the data set on A549; 5.81 µM in the data set with KB; 5.91 µM in the data set on K562; 2250 nM in [2]; 2960 nM in the data set with SNU-638; 4.23 µM in the data set on MCF7. The IC50 with HT-1080 is 2.28 µM; in data set [4], 8.32 nM.

Take `O=C1Nc2ccc(OC(F)(F)F)cc2/C1=C1/Nc2ccc(Cl)cc2/C1=N/O`: the outcome in data set [1] and in data set [5] was inactive. Moreover, the IC50 in the data set with A549 is over 20 µM; in the data set on KB it was 2.83 µM; in the data set on K562 it was over 20 µM; in [2] it was 3790 nM; in the data set on SNU-638, 2710 nM; in the data set on MCF7 it was 4.23 µM. Also, the IC50 stood at 17.7 µM in the data set with HT-1080 and 76.2 nM in data set [4]. Also, the Selectivity ratio in data set [3] came to 6.

Take `COc1ccc2c(c1)C(=N/O)/C(=C1/C(=O)Nc3ccc(OC(F)(F)F)cc31)N2`: the outcome in data set [1] and in data set [5] was inactive. In addition, the IC50 was over 20 µM with A549; 20 µM in the data set on KB; over 20 µM in the data set on K562; over 20000 nM in [2]; over 20000 nM in the data set on SNU-638; 13.2 µM in the data set with MCF7. Moreover, the IC50 is over 20 µM in the data set with HT-1080 and 8620 nM in data set [4].

Take `O=C1Nc2ccc(Cl)cc2/C1=C1/Nc2ccc(Cl)cc2/C1=N/O`: in data set [1], the Residual activity came out at 90%. In addition, the IC50 in the data set on A549 is over 20 µM; in the data set with KB it was 11.9 µM; in the data set with K562 it was 17.2 µM; in data set [2], 1860 nM; in the data set on SNU-638, 2570 nM; with MCF7 it was 6.14 µM. The IC50 is 12.2 µM in the data set on HT-1080 and 11.1 nM in data set [4]. The Selectivity ratio in [3] amounted to 6.

In the case of `COc1ccc2c(c1)C(=N/O)/C(=C1/C(=O)Nc3ccc(F)cc31)N2`, the result in data set [1] and in data set [5] was inactive. For the same molecule, the IC50 was 6.71 µM in the data set on A549; over 20 µM in the data set on KB; 5.29 µM with K562; 3590 nM in [2]; 13600 nM with SNU-638; over 20 µM in the data set with MCF7. Further, the IC50 in the data set with HT-1080 was determined as 4.84 µM; in data set [4], 4120 nM.

In [1], `O=C1Nc2ccc(Cl)cc2/C1=C1/Nc2ccc(O)cc2/C1=N/O` had a Residual activity of 90%. For the same molecule, the IC50 with A549 is 16.4 µM; with KB, 10.2 µM; in the data set with K562 it was 12.2 µM; in data set [2] it was 3510 nM; in the data set with SNU-638, 5140 nM; in the data set on MCF7 it was 10.7 µM. The figures for the IC50 (in the data set with HT-1080; in data set [4]) were 2.92 µM and 5.27 nM, respectively.

`Cc1ccc2c(c1)C(=N/O)/C(=C1/C(=O)Nc3ccc(F)cc31)N2` registered a Residual activity in data set [1] of 90%. The IC50 in the data set on A549 was over 20 µM; with KB, 10.6 µM; with K562, over 20 µM; in data set [2] it was over 20000 nM; with SNU-638, 11500 nM; with MCF7, 10.5 µM. Moreover, in the data set with HT-1080, the IC50 was over 20 µM.

As for `Cc1ccc2c(c1)C(=N/O)/C(=C1/C(=O)Nc3ccc(Cl)cc31)N2`, the Residual activity in data set [1] was found to be 90%. Moreover, the IC50 in the data set on A549 is over 20 µM; in the data set with KB it was 5.18 µM; in the data set with K562, over 20 µM; in data set [2] it was 18800 nM; with SNU-638, 12700 nM; with MCF7 it was 8.79 µM. The IC50 in the data set on HT-1080 is over 20 µM.

In the case of `O=C1Nc2ccc([N+](=O)[O-])cc2/C1=C1/Nc2ccc(Br)cc2/C1=N/O`, the solubility in data set [6] is under 0.1 mg/mL; in data set [7] it was under 0.1 mg/mL; in [8] it was under 0.1 mg/mL; in data set [9], “Insoluble”. In addition, the IC50 in the data set with A549 was 16.9 µM; with KB, 1.16 µM; in the data set on K562, 0.77 µM; in data set [2], 450 nM; in the data set on SNU-638, 1140 nM; with MCF7 it was 0.95 µM. This molecule came in with an IC50 in the data set on HT-1080 of 1.45 µM.

As for `O=C1Nc2ccc(F)cc2/C1=C1/Nc2ccc(Cl)cc2/C1=N/O`, in data set [1], the Residual activity is 90%. Also, the IC50 in the data set on A549 was determined as 18.9 µM; in the data set on KB it was 3.62 µM; in the data set on K562 it was 14.7 µM; in [2] it was 1720 nM; with SNU-638, 2280 nM; in the data set with MCF7 it was 3.52 µM. For the same molecule, the IC50 in the data set with HT-1080 came out at 3.62 µM; in data set [4], 10.1 nM. Also, the Selectivity ratio in [3] worked out at 6.

In turn, `Cc1ccc2c(c1)C(=N/O)/C(=C1/C(=O)Nc3ccc([N+](=O)[O-])cc31)N2` returned a Residual activity in data set [1] of 90%. Also, the IC50 with A549 was over 20 µM; with KB it was 2.11 µM; in the data set on K562, 0.81 µM; in data set [2], 1410 nM; in the data set on SNU-638 it was 1060 nM; with MCF7 it was 1.06 µM. Moreover, the values for the IC50 (in the data set with HT-1080; in data set [4]) were 3.92 µM and 8.68 nM, respectively. Further, the Selectivity ratio in [3] came to 7.

As usually defined, the IC50 is the concentration that gives 50% inhibition. Usually solubility stands for how much of the substance goes into solution per volume.
